Results published in patent publication US20090099195A1 (ASTRAZENECA AB, priority 2007, published 2009).

Biological target: T1, hP2X3 (human Purinergic P2X receptors subtype 3), clone B (Homo sapiens, UniProt P56373)
T1 sequence (P56373 1-397): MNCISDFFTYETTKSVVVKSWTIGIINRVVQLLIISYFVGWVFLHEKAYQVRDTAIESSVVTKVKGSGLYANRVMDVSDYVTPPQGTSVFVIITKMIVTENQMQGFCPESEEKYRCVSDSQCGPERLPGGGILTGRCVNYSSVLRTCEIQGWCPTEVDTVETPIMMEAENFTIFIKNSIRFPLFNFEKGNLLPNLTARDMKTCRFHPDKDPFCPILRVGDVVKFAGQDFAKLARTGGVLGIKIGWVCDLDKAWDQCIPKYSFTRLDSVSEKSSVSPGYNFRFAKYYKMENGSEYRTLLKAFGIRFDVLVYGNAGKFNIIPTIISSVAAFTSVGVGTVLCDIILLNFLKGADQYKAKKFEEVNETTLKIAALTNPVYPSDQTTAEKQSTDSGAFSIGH
Test: hP2X3 FLIPR calcium (Fluo-4) antagonist assay, clone B
Conditions: Human P2X3 FLIPR Clone B IC50 (nM), RLE cells expressing hP2X3 clone B (NM_002559); agonist 500 nM α,β-methylene-ATP
Method: The assay used a calcium indicator dye (Fluo-4) that emits fluorescence, the intensity of which is related to the concentration of calcium that entered the cell when P2X3 was activated and the channel opened. Activation of hP2X3 or rat P2X3 and rat P2X2/3 (from the coexpression of rat P2X3 and rat P2×2) is elicited the by P2X3 agonist α,β methylene-ATP (Sigma M6517), and the resulting fluorescence is measured with a FLIPR II™ instrument (Molecular Devices). Compounds are tested for their ability to inhibit the agonist-induced fluorescent signal.
For the rat P2X2/3 HEK-TREX cells, induction of the rat P2X3 expression is used to generate the rat P2X2/3 channels in HEK-TREX cells and performed by addition of 1 μg/mL tetracycline (Invitrogen) 24 h prior to compounds testing to the HEK-TREX expressing the rat P2X2 constitutively. On the day of the experiment, the cells and test compounds are prepared as follows. […] After preparing the compounds, the medium is removed from the cell plates by inversion. A loading solution of 30 μL assay buffer containing 4 μM of the calcium indicator dye FLUO-4 AM (Molecular Probes F14202) is added to each well using a Multidrop (Labsystems). […] The incubation is terminated by washing the cells four times in assay buffer using a Skatron Embla (Molecular Devices), and 25 μL of assay buffer was left in each well. Cell plates are then transferred to the FLIPR. Experiments are initiated by measuring a baseline fluorescence reading for 10 seconds, followed by the addition of 12.5 μL of cpds and data sampling for a total 280 seconds. The experiments are terminated by addition of 12.5 μL of a reference agonist (500 nM α,β-methylene-ATP) or buffer, producing a final assay volume of 50 μL followed by data sampling for an additional 280 seconds.
In P2X3 antagonist experiments (human and rat assays) data are analysed as normalised maximal peak fluorescence monitored following agonist addition and calculated as percent of relative fluorescent counts from control agonist. The dose-response antagonist inhibition curves are analyzed in a 4-parameter sigmoidal fit using a non-linear curve-fitting program (XLfit version 5.0.6, ID Business Solutions Limited, Guildford, UK).

Row | SMILES | IC50
1 | COc1ccc(C(Nc2nc(N3CCN(C(C)=O)CC3)nc3c2CN(C(C)C)C3=O)c2ccccc2)cc1 (stereo not shown) [Example 103, 2-(4-Acetyl-piperazin-1-yl)-6-isopropyl-4-{[(4-methoxy-phenyl)-phenyl-methyl]-amino}-5,6-dihydro-pyrrolo[3,4-d]pyrimidin-7-one] | 310 nM
2 | CC(=O)N1CCN(c2nc(Nc3cccc(C(C)C)c3)c3c(n2)C(=O)N(C(C)C)C3)CC1 [Example 105, 2-(4-Acetyl-piperazin-1-yl)-6-isopropyl-4-(3-isopropyl-phenylamino)-5,6-dihydro-pyrrolo[3,4-d]-pyrimidin-7-one] | 9300 nM
3 | CC(C)N1Cc2c(nc(NCCN(C)C)nc2N(Cc2ccccc2)Cc2ccccc2)C1=O [Example 106, 4-Dibenzylamino-2-(2-dimethylamino-ethylamino)-6-isopropyl-5,6-dihydro-pyrrolo[3,4-d]-pyrimidin-7-one] | 5300 nM
4 | CCN1CCN(c2nc(NCC(c3ccccc3)c3ccccc3)c3c(n2)C(=O)N(C(C)C)C3)CC1 [Example 107, 4-(2,2-Diphenyl-ethylamino)-2-(4-ethyl-piperazin-1-yl)-6-isopropyl-5,6-dihydro-pyrrolo[3,4-d]pyrimidin-7-one] | 2300 nM
5 | CC(C)N1Cc2c(NCC(c3ccccc3)c3ccccc3)nc(NCCCN(C)C)nc2C1=O [Example 108, 2-(3-Dimethylamino-propylamino)-4-(2,2-diphenyl-ethylamino)-6-isopropyl-5,6-dihydro-pyrrolo[3,4-d]pyrimidin-7-one] | 4400 nM
6 | CNCCNc1nc(NCC(c2ccccc2)c2ccccc2)c2c(n1)C(=O)N(C(C)C)C2 [Example 109, 4-(2,2-Diphenyl-ethylamino)-6-isopropyl-2-(2-methylamino-ethylamino)-5,6-dihydro-pyrrolo[3,4-d]pyrimidin-7-one] | 7200 nM
7 | CCCN1Cc2c(NC(c3ccccc3)c3ccccc3)nc(N3CCOCC3)nc2C1=O [Example 110, 4-[(diphenylmethyl)amino]-2-morpholin-4-yl-6-propyl-5,6-dihydro-7H-pyrrolo[3,4-d]pyrimidin-7-one] | 3300 nM
8 | CC(=O)N1CCN(c2nc3c(c(N(C)Cc4ccc(Cl)cc4)n2)CN(C(C)C)C3=O)CC1 [Example 111, 2-(4-acetylpiperazin-1-yl)-4-[(4-chlorobenzyl)(methyl)amino]-6-isopropyl-5,6-dihydro-7H-pyrrolo[3,4-d]pyrimidin-7-one] | 9000 nM
9 | CC(=O)N1CCN(c2nc(NCC3(c4ccc(Cl)cc4)CCCC3)c3c(n2)C(=O)N(C(C)C)C3)CC1 [Example 113, 2-(4-acetylpiperazin-1-yl)-4-({[1-(4-chlorophenyl)cyclopentyl]methyl}amino)-6-isopropyl-5,6-dihydro-7H-pyrrolo[3,4-d]pyrimidin-7-one] | 460 nM
10 | CC(=O)N1CCN(c2nc3c(c(N4CCC[C@H]4Cc4ccccc4)n2)CN(C(C)C)C3=O)CC1 [Example 117, 2-(4-acetylpiperazin-1-yl)-4-[(2S)-2-benzylpyrrolidin-1-yl]-6-isopropyl-5,6-dihydro-7H-pyrrolo[3,4-d]pyrimidin-7-one] | 3700 nM
11 | CCN1Cc2c(NC(C)(C)Cc3ccc(F)cc3)nc(N3CCN(C(C)=O)CC3)nc2C1=O [Example 118, 2-(4-acetylpiperazin-1-yl)-6-ethyl-4-{[2-(4-fluorophenyl)-1,1-dimethylethyl]amino}-5,6-dihydro-7H-pyrrolo[3,4-d]pyrimidin-7-one] | 1100 nM
12 | CCN1CCN(c2nc(NC(c3ccccc3)c3ccccn3)c3c(n2)C(=O)N(C(C)C)C3)CC1 (stereo not shown) [Example 119, 2-(4-ethylpiperazin-1-yl)-6-isopropyl-4-{[phenyl(pyridin-2-yl)methyl]amino}-5,6-dihydro-7H-pyrrolo[3,4-d]pyrimidin-7-one] | 3200 nM
13 | CCN1CCN(c2nc(NC3c4cccnc4CCc4c(F)cccc43)c3c(n2)C(=O)N(C(C)C)C3)CC1 (stereo not shown) [Example 120, 2-(4-ethylpiperazin-1-yl)-4-[(9-fluoro-10,11-dihydro-5H-benzo[4,5]cyclohepta[1,2-b]pyridin-5-yl)amino]-6-isopropyl-5,6-dihydro-7H-pyrrolo[3,4-d]pyrimidin-7-one] | 1400 nM
14 | CC(=O)N1CCN(c2nc3c(c(N4CCOC(C)(c5ccc(Cl)cc5)C4)n2)CN(C(C)C)C3=O)CC1 (stereo not shown) [Example 123, 2-(4-acetylpiperazin-1-yl)-4-[2-(4-chlorophenyl)-2-methylmorpholin-4-yl]-6-isopropyl-5,6-dihydro-7H-pyrrolo[3,4-d]pyrimidin-7-one] | 9100 nM
15 | CC(C)C(=O)N1CCN(c2nc(NC(C)(C)Cc3ccc(Cl)cc3)c3c(n2)C(=O)N(C(C)C)C3)CC1 [Example 124, 4-{[2-(4-chlorophenyl)-1,1-dimethylethyl]amino}-2-(4-isobutyrylpiperazin-1-yl)-6-isopropyl-5,6-dihydro-7H-pyrrolo[3,4-d]pyrimidin-7-one] | 3000 nM
16 | CC(C)N1Cc2c(NC(C)(C)Cc3ccc(Cl)cc3)nc(N3CCN(C(=O)C(C)(C)C)CC3)nc2C1=O [Example 125, 4-{[2-(4-chlorophenyl)-1,1-dimethylethyl]amino}-2-[4-(2,2-dimethylpropanoyl)piperazin-1-yl]-6-isopropyl-5,6-dihydro-7H-pyrrolo[3,4-d]pyrimidin-7-one] | 3800 nM
17 | CC(C)N1Cc2c(NC(C)(C)Cc3ccc(Cl)cc3)nc(N3CCN(C(=O)C4CC4)CC3)nc2C1=O [Example 126, 4-{[2-(4-chlorophenyl)-1,1-dimethylethyl]amino}-2-[4-(cyclopropylcarbonyl)piperazin-1-yl]-6-isopropyl-5,6-dihydro-7H-pyrrolo[3,4-d]pyrimidin-7-one] | 2300 nM
18 | CC(C)N1Cc2c(NC(C)(C)Cc3ccc(Cl)cc3)nc(N3CCN(C(=O)N(C)C)CC3)nc2C1=O [Example 127, 4-(4-{[2-(4-chlorophenyl)-1,1-dimethylethyl]amino}-6-isopropyl-7-oxo-6,7-dihydro-5H-pyrrolo[3,4-d]pyrimidin-2-yl)-N,N-dimethylpiperazine-1-carboxamide] | 2200 nM
19 | CC(C)N1Cc2c(NC(C)(C)Cc3ccc(Cl)cc3)nc(N3CCN(C=O)CC3)nc2C1=O [Example 128, 4-(4-{[2-(4-chlorophenyl)-1,1-dimethylethyl]amino}-6-isopropyl-7-oxo-6,7-dihydro-5H-pyrrolo[3,4-d]pyrimidin-2-yl)piperazine-1-carbaldehyde] | 280 nM
20 | CC(=O)N1CCN(c2nc3c(c(N4CCCC4Cc4ccc(F)cc4)n2)CN(C(C)C)C3=O)CC1 (stereo not shown) [Example 129, 2-(4-Acetylpiperazin-1-yl)-4-[2-(4-fluorobenzyl)-pyrrolidin-1-yl]-6-isopropyl-5H-pyrrolo[3,4-d]pyrimidin-7(6H)-one] | 150 nM
21 | CC(=O)N1CCN(c2nc(NC3CCc4cc(Cl)ccc43)c3c(n2)C(=O)N(C(C)C)C3)CC1 (stereo not shown) [Example 133, 2-(4-Acetylpiperazin-1-yl)-4-(5-chloro-2,3-dihydro-1H-inden-1-ylamino)-6-isopropyl-5H-pyrrolo[3,4-d]pyrimidin-7(6H)-one] | 4200 nM
22 | CC(C)N1Cc2c(NCc3cnc4ccccc4c3)nc(N3CCN4C(=O)CCC4C3)nc2C1=O (stereo not shown) [Example 135, 6-Isopropyl-2-(6-oxohexahydropyrrolo[1,2-a]pyrazin-2(1H)-yl)-4-(quinolin-3-ylmethylamino)-5H-pyrrolo[3,4-d]pyrimidin-7(6M)-one] | 870 nM
23 | CC(C)N1Cc2c(NCc3cnc4ccccc4c3)nc(N3CCn4cnnc4C3)nc2C1=O [Example 137, 2-(5,6-Dihydro-[1,2,4]triazolo[4,3-a]pyrazin-7(8H)-yl)-6-isopropyl-4-(quinolin-3-ylmethylamino)-5H-pyrrolo[3,4-d]pyrimidin-7(6H)-one] | 680 nM
24 | CC(=O)N1CCN(c2nc(NC(C)(C)Cc3ccc(F)cc3)c3c(n2)C(=O)N(C(C)C)C3)C(C)C1 (stereo not shown) [Example 139, 2-(4-Acetyl-2-methyl-piperazin-1-yl)-4-[2-(4-fluoro-phenyl)-1,1-dimethyl-ethylamino]-6-isopropyl-5,6-dihydro-pyrrolo[3,4-d]pyrimidin-7-one] | 1000 nM
25 | CC(=O)N1CCN(c2nc(NCc3cc(C(C)(C)C)[nH]n3)c3c(n2)C(=O)N(C(C)C)C3)CC1 [Example 143, 4-(4-acetylpiperazin-1-yl)-8-propan-2-yl-2-[(5-tert-butyl-1H-pyrazol-3-yl)methylamino]-3,5,8-triazabicyclo[4.3.0]nona-1,3,5-trien-7-one] | 160 nM
26 | CC(=O)N1CCN(c2nc(NCc3nc(-c4ccccc4)no3)c3c(n2)C(=O)N(C(C)C)C3)CC1 [Example 145, 4-(4-acetylpiperazin-1-yl)-2-[(3-phenyl-1,2,4-oxadiazol-5-yl)methylamino]-8-propan-2-yl-3,5,8-triazabicyclo[4.3.0]nona-1,3,5-trien-7-one] | 3200 nM
27 | CC(=O)N1CCN(c2nc(NCc3n[nH]c4c3CCC4)c3c(n2)C(=O)N(C(C)C)C3)CC1 [Example 151, 4-(4-acetylpiperazin-1-yl)-2-(6,7-diazabicyclo[3.3.0]octa-7,9-dien-8-ylmethylamino)-8-propan-2-yl-3,5,8-triazabicyclo[4.3.0]nona-1,3,5-trien-7-one] | 940 nM
28 | CC(=O)N1CCN(c2nc(NCc3cn(C4CCCC4)nc3C)c3c(n2)C(=O)N(C(C)C)C3)CC1 [Example 152, 4-(4-acetylpiperazin-1-yl)-2-[(1-cyclopentyl-3-methyl-pyrazol-4-yl)methylamino]-8-propan-2-yl-3,5,8-triazabicyclo[4.3.0]nona-2,4,10-trien-7-one] | 270 nM
